Reference: patent US6265426A, “Triazole derivatives” (Hoffmann-La Roche Inc., priority 1999, dated 2001)
Counter-ions that a name gives are not always drawn.

Target: T1, NMDA receptor (Rattus norvegicus, UniProt P35439+Q00960)
T1 construct: Membranes were prepared by homogenization of the whole brain minus cerebellum and medulla oblongata; from tissue; host or cells: rat whole brain minus cerebellum and medulla oblongata, membranes
Test: [3H] Compound A (R-(R*,S*)]-α-(4-Hydroxy-phenyl)-β-methyl-4-(phenyl-methyl)-1-piperidine propanol) binding, displacement on rat brain membranes (NMDA receptor subtype)
Settings: displacement of 5 nM [3H] Compound A, rat whole brain minus cerebellum and medulla oblongata membranes, pH 7.4, 2 hours at 4° C.
Method: ^3 H R-(R*,S*)]-α-(4-Hydroxy-phenyl)-β-methyl-4-(phenyl-methyl)-1-piperidine propanol (compound A) binding
Male Fullinsdorf albino rats weighing between 150-200 g were used. Membranes were prepared by homogenization of the whole brain minus cerebellum and medulla oblongata with a Polytron (10.000 rpm, 30 seconds), in 25 volumes of a cold Tris-HCl 50 mM, EDTA 10 mM, pH 7.1 buffer. The homogenate was centrifuged at 48.000 g for 10 minutes at 4° C. The pellet was resuspended using the Polytron in the same volume of buffer and the homogenate was incubated at 37° C. for 10 minutes. After centrifugation the pellet was homogenized in the same buffer and frozen at -80° C. for at least 16 hours but not more than 10 days. For the binding assay the homogenate was thawed at 37° C., centrifuged and the pellet was washed three times as above in a Tris-HCl 5 mM, pH 7.4 cold buffer. The final pellet was resuspended in the same buffer and used at a final concentration of 200 μg of protein/ml.
Compound A binding experiments were performed using a Tris-HCl 50 mM, pH 7.4 buffer. For displacement experiments 5 nM of Compound A were used and non specific binding was measured using 10 μM of tetrahydroisoquinoline and usually it accounts for 10% of the total. The incubation time was 2 hours at 4° C. and the assay was stopped by filtration on Whatmann GF/B glass fiber filters (Unifilter-96, Packard, Zutrich, Switzerland). The filters were washed 5 times with cold buffer. The radioactivity on the filter was counted on a Packard Top-count microplate scintillation counter after addition of […] of microscint 40 (Canberra Packard S.A., Zurich, Switzerland).
The effects of compounds were measured using a minimum of 8 concentrations and repeated at least once. The pooled normalized values were analyzed using a non-linear regression calculation program which provide IC50 with their relative upper and lower 95% confidence limits (RS1, BBN, USA). The IC50 value refers to the concentration of a compound needed to give 50% inhibition, i.e., the concentration at which 50% of the ligands bonded to the recept or are displaced.
Concentrations higher than 10 μM were not tested.

T1 sequence (Q00960 27-1482, other chains not shown): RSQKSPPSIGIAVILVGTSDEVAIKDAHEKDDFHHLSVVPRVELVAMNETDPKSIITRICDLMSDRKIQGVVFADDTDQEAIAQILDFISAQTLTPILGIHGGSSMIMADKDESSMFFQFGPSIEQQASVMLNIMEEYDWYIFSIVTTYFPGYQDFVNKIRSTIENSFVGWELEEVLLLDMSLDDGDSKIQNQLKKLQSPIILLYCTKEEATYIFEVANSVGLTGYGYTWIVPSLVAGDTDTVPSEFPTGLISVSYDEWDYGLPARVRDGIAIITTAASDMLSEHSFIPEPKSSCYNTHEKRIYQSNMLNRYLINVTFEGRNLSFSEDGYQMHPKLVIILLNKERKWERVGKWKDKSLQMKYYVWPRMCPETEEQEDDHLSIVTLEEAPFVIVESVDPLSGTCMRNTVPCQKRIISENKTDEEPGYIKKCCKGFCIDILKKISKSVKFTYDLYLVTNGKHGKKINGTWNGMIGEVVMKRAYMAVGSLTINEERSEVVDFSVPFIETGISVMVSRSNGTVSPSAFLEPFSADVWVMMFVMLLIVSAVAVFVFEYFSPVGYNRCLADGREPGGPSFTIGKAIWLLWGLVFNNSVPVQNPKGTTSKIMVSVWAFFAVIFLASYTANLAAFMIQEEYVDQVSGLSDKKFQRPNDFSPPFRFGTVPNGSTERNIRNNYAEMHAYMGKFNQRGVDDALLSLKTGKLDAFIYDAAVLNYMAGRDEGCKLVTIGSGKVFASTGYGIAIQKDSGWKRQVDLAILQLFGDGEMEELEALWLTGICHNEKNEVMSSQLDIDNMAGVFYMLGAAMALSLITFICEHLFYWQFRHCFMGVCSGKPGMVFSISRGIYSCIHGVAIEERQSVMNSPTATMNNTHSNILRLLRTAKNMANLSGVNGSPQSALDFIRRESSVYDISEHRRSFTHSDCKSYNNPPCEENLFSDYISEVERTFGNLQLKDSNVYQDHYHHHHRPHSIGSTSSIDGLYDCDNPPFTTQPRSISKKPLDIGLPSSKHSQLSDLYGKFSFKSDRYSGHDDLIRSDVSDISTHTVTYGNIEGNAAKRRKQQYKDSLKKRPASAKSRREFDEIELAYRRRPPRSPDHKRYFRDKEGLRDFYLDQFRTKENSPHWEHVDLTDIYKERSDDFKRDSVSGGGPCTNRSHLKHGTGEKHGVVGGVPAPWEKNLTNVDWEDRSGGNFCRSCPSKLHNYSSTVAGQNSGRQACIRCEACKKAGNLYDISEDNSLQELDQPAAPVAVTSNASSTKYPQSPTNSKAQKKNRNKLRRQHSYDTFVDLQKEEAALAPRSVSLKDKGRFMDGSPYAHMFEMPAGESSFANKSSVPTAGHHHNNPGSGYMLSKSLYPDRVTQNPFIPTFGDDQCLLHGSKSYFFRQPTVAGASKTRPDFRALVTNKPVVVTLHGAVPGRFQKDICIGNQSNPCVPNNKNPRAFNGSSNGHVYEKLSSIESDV

Question: For c1cc(CN2CCCC2)cc(-c2n[nH]c(-c3ccc4ccccc4c3)n2)c1 [Example 25, 5-Naphthalen-2-yl-3-(3-pyrrolidin-1-ylmethyl-phenyl)-1H-[1,2,4]triazole hydrochloride], which IC50 is on record?
Answer: 1000 nM

Question: For Clc1ccc(-c2nc(-c3cccc(CN4CCCC4)c3)n[nH]2)cc1 [Example 49, 5-(4-Chloro-phenyl)-3-(3-pyrrolidin-1-ylmethyl-phenyl)-1H-[1,2,4]triazole hydrochloride], which IC50 is on record?
Answer: 87 nM

Question: COc1ccc(-c2nc(-c3cccc(CN4CCCC4)c3)n[nH]2)cc1 [Example 51, 5-(4-Methoxy-phenyl)-3-(3-pyrrolidin-1-ylmethyl-phenyl)-1H-[1,2,4]triazole hydrochloride] was tested. Which IC50 did it give?
Answer: 58 nM

Question: CCN(CC)Cc1cccc(-c2n[nH]c(-c3ccc(OC)cc3)n2)c1 [Example 52, Diethyl-{3-[5-(4-methoxy-phenyl)-1H-[1,2,4]triazol-3-yl]-benzyl}-amine hydrochloride] was tested. Which IC50 did it give?
Answer: 330 nM

Question: COc1ccc(-c2nc(-c3cccc(CN)c3)n[nH]2)cc1 [Example 73, 3-[5-(4-Methoxy-phenyl)-1H-[1,2,4]triazol-3-yl]-benzylamine hydrochloride] was tested. Which IC50 did it give?
Answer: 8.3 nM
